The record followed here is US9144591B2, “Transcription modulator compositions” (Academia Sinica, priority 2006, dated 2015).

The test system of test [1] is PSA promoter (androgen-responsive promoter) in 22RvPSA36-103 cells. Put plainly: PSA-luciferase reporter assay, induction by steroid hormones. The test is classed as cell-based, human. As to conditions: 20 hours; for PSA-luciferase activity stimulation: 10 nM, dose dependent, maximum. How it is done: The 22Rvl cell line was purchased from ATCC. Reporter plasmid (p5.7 kb-PSA-Luc) was constructed by inserting the 5.7 kb PSA promoter into pGL3 plasmid (Promega).
(§1) For luciferase activity assays, 8×10^4 22Rvl-derived cells were grown in 48-well multi-well plates. The cell culture medium was RPMI containing 5% charcoal coated dextran stripped fetal bovine serum (Hyclone). After the cells were grown for one day in culture, their growth medium was exchanged to include experimental or control compositions, as described below, and cell growth was continued for a further 20 hours. Cells were lysed by the addition of passive lysis buffer (Promega), then luciferase assays were performed using a luciferase assay system (Promega) and VICTOR^2 multilabel counter (PerkinElmer), and normalized to lysate protein as measured by a Coomassie (Bradford) Protein Assay Kit (Pierce).
The AR signaling pathway promotes the development of prostate cancer. Thus, we established a cell-based model to observe androgen-responsive promoter activity in human prostate cancer cells. […] 22RvPSA36-103 cells were incubated for 20 hours in the presence of an androgen.
For orientation: Reporter assays use an easily measured gene product as a stand-in for the process of interest.

In test [2] the test system is androgen-responsive promoter activity in 22RvPSA36-103 cells. Nature of the test: Luciferase assay, inhibition of androgen-induced androgen-responsive promoter activity. In kind it is cell-based, human. As to conditions: 20 hours. The protocol: as §1
The ability of the IKK inhibitors 15-deoxy-Δ^12,14-prostaglandin J2, prostaglandin A1, and wedelolactone to inhibit androgen-responsive promoter activity was tested using the above-described luciferase assay.
A tet operon-regulated H1-small hairpin RNA expression cassette was constructed and inserted into the pcDNA6tTR™ plasmid from Invitrogen (Carlsbad, Calif.). Each knockdown plasmid was transfected into 22RvPSA36-103 cells to produce stably transfected cell lines. The knockdown of IKKα or IKKβ in daughter cell lines was determined by immunoblotting. […] To induce RNAi-mediated knockdown, cells were grown in medium containing 1 μg/ml doxycycline as compared to vehicle control for 3 days. Subsequent treatment and assays were performed according to the procedure of the aforementioned luciferase assays.

Test [3] relates to 22Rv1 cells. Put plainly: Colony forming efficiency, crystal violet OD595, 22Rv1 cells. As to conditions: 6 days, plus androgen. The test is classed as cell-based, human.
Test [4] concerns 22RvPSA36-103 cells. Nature of the test: Colony forming efficiency, crystal violet OD595, 22RvPSA36-103 cells. To be noted: 6 days, plus androgen. The test is classed as cell-based, human. The protocol:
Given that activation of the AR signaling pathway stimulates prostate cancer cell proliferation and our finding that IKKα is implicated in this pathway, we sought to determine if IKKα inhibition would reduce prostate cancer cell proliferation. To this end, the colony forming efficiency of 22Rv1 cells and 22RvPSA36-103 cells in the presence of an androgen plus or minus an IKK inhibitor was determined by growing 2×10^4 cells in 12-well multi-well plates for 6 days. The growth medium was replaced every three days. At the end of the growth period, cell colonies were stained with 0.1% crystal violet in phosphate buffer saline, dried, and photographed. Cellular retention of crystal violet was extracted with 20% acetic acid in water and measured at OD595 as a quantitative indicator of colony forming efficiency.

Test [5] deals with AR in a complex with IKKα. To be noted: 10 nM, five minutes, 22Rv/PSA36-103 cells. An excerpt:
We investigated if IKKα or IKKβ could interact with activated AR in 22Rv/PSA36-103 cells after androgen stimulation.

With `C[C@]12CC[C@@H]3c4ccc(O)cc4CC[C@H]3[C@@H]1CC[C@@H]2O` [17-β-estradiol], the “Induction of PSA-luciferase expression” value in test [1] is recorded as “failed to induce PSA-luciferase expression”. Take `C[C@]12CC[C@H]3[C@@H](CCC4=CC(=O)CC[C@@]43C)[C@@H]1CC[C@@H]2O` [testosterone]: in test [1], the PSA-luciferase activity stimulation result is given as “approximately 100 fold over baseline”. Regarding `CCCCC/C=C/C=C1/C(=O)C=C[C@@H]1C/C=C\CCCC(=O)O` [15-deoxy-Δ^12,14-prostaglandin J2], in test [2], the “Inhibition of 5α-dihydrotestosterone-induced luciferase expression” value is “inhibited 5α-dihydrotestosterone-induced luciferase expression in a dose-dependent manner”. On to `COc1cc(O)c2c(c1)oc(=O)c1c3cc(O)c(O)cc3oc21` [wedelolactone], for which, in test [2], the “Inhibition of 5α-dihydrotestosterone-induced luciferase expression” value was “inhibited 5α-dihydrotestosterone-induced luciferase expression in a dose-dependent manner”. Moreover, the “Inhibition of androgen-stimulated colony growth” value in test [3] and in test [4] was “highly effective” in each case. For `CCCCC[C@H](O)/C=C/[C@H]1C=CC(=O)[C@@H]1CCCCCCC(=O)O` [prostaglandin A1], in test [2], the “Inhibition of 5α-dihydrotestosterone-induced luciferase expression” value was “inhibited 5α-dihydrotestosterone-induced luciferase expression in a dose-dependent manner”.

`C[C@]12CCC(=O)C[C@@H]1CC[C@@H]1[C@@H]2CC[C@]2(C)[C@@H](O)CC[C@@H]12` [5α-dihydrotestosterone]: the PSA-luciferase activity stimulation entry in test [1] is reported as “approximately 100 fold over baseline”. The “Co-immunoprecipitation of the AR in a complex with IKKα” value in test [5] is listed as “detected”. With `CC(=O)[C@H]1CC[C@H]2[C@@H]3CCC4=CC(=O)CC[C@]4(C)[C@H]3CC[C@]12C` [progesterone], in test [1], the “Induction of PSA-luciferase expression” value is reported as “failed to induce PSA-luciferase expression”.
